Patent US12264164B2, “Method of treatment of symptoms of menopause” (KaNDy Therapeutics Limited, priority 2018, dated 2025)

Tested on: post-menopausal women experiencing moderate to severe vasomotor symptoms
Assay: Efficacy assessments in the Phase 1b/2 study
Type: in vivo, human
Conditions: hard gelatin drug product, 150 mg once daily (three 50 mg capsules), doses tested 50-300 mg for 14 days
Experimental: There were 13 or 15 subjects per dose group.
Repeat once-a-day dosing of 150 mg Compound A gave a geometric mean exposure AUC0-24 5164 ng.hr/mL of the drug at Day 14.

Cc1cc(F)ccc1-c1cc(N2C[C@H]3COCCN3C[C@H]2CO)ncc1N(C)C(=O)C(C)(C)c1cc(C(F)(F)F)cc(C(F)(F)F)c1 [Compound A, 2-[3,5-Bis(trifluoromethyl)phenyl]-N-{4-(4-fluoro-2-methylphenyl)-6-[(7S,9aS)-7-(hydroxymethyl)hexahydropyrazino[2,1-c][1,4]oxazin-8(1H)-yl]-3-pyridinyl}-N,2-dimethylpropanamide]
efficacy assessments: maximum efficacy
